Measured values as given in PubChem BioAssay AID743340 (Broad Institute, 2014).
Results filed as inconclusive are left out. Activity calls are given as the source filed them.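 Rule for the calls: active = compounds whose fitted AC50 for signal loss is at most twice the top valid dose tested; inconclusive = flat curve with 30 to 70% inhibition, or poor fit; inactive = the rest.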

target: Leucyl-cystinyl aminopeptidase (Mus musculus) (UniProt Q8C129); assay: IRAP inhibitors, dose response, selectivity assay for ERAP1 modulator project, biochemical, Leu-AMC fluorescence, cherry-picked samples, set 2 (AID 743340); settings: purified IRAP, Leu-AMC cleavage fluorescence, 1 h
Sequence (Q8C129 whole entry, looked up): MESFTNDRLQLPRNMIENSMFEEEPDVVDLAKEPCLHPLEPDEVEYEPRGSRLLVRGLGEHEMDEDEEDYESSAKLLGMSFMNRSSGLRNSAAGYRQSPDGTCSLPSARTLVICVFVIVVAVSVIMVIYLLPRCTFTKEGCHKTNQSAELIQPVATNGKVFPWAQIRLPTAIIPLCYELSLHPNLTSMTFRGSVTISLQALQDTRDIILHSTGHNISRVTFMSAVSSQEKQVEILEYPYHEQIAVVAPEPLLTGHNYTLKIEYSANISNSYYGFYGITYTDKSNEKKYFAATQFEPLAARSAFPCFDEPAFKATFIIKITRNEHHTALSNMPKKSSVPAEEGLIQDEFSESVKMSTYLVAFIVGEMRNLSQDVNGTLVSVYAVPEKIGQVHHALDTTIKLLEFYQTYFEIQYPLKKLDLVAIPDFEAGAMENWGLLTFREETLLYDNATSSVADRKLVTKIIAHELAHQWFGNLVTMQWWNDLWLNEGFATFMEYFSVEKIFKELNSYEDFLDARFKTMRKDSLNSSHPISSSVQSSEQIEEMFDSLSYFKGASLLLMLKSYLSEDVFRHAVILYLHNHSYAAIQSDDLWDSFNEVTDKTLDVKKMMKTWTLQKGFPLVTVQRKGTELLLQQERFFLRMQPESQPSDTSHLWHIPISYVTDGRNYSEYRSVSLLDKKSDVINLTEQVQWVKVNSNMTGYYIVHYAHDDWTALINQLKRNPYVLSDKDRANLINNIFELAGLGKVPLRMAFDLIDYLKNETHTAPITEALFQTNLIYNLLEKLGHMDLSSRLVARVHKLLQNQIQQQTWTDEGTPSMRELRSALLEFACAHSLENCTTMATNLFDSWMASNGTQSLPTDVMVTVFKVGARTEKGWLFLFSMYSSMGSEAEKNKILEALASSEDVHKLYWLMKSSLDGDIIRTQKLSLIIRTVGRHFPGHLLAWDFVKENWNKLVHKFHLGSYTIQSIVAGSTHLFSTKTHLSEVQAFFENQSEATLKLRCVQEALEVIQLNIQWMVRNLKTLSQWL

Structure (SMILES) | AC50
CCCN(C)C[C@@H]1OCCCC[C@@H](C)Oc2ccc(NS(=O)(=O)c3ccc(C)cc3)cc2C(=O)N([C@H](C)CO)C[C@@H]1C | > 20 µM (inactive)
CCCN(C)C[C@@H]1OCCCC[C@@H](C)Oc2ccc(NS(=O)(=O)c3c(C)noc3C)cc2C(=O)N([C@H](C)CO)C[C@@H]1C | > 20 µM (inactive)

same assay, conditions: purified IRAP, Leu-AMC cleavage fluorescence, 1 h; at 2.6 µM (top of the series)

Structure (SMILES) | activity change, negative = inhibition
C[C@@H]1CCCCO[C@@H](CN(C)C(=O)CCC(F)(F)F)[C@@H](C)CN([C@@H](C)CO)C(=O)c2cc(NS(=O)(=O)c3ccccc3)ccc2O1 | inactive

same assay, conditions: purified IRAP, Leu-AMC cleavage fluorescence, 1 h; at 5 µM (top of the series)

Structure (SMILES) | activity change, negative = inhibition
CCCN(C)C[C@@H]1OCCCC[C@@H](C)Oc2ccc(NS(=O)(=O)c3ccc(C)cc3)cc2C(=O)N([C@@H](C)CO)C[C@@H]1C | inactive
C[C@@H]1CCCCO[C@@H](CN(C)C(=O)CCC(F)(F)F)[C@@H](C)CN([C@@H](C)CO)C(=O)c2cc(NS(=O)(=O)c3ccc(Cl)cc3)ccc2O1 | inactive

same assay, conditions: purified IRAP, Leu-AMC cleavage fluorescence, 1 h; at 5.6 µM (top of the series)

Structure (SMILES) | activity change, negative = inhibition
C[C@@H]1CCCCO[C@@H](CN(C)Cc2ccc3c(c2)OCO3)[C@@H](C)CN([C@@H](C)CO)C(=O)c2cc(NS(=O)(=O)c3ccccc3)ccc2O1 | inactive
C[C@@H]1CCCCO[C@@H](CN(C)Cc2ccccc2)[C@@H](C)CN([C@H](C)CO)C(=O)c2cc(NS(=O)(=O)c3cccs3)ccc2O1 | inactive

same assay, conditions: purified IRAP, Leu-AMC cleavage fluorescence, 1 h; at 10 µM (top of the series)

Structure (SMILES) | activity change, negative = inhibition
C[C@@H]1CCCCO[C@@H](CN(C)C)[C@H](C)CN([C@@H](C)CO)C(=O)c2cc(NC(=O)Nc3ccc(C(F)(F)F)cc3)ccc2O1 | inactive

same assay, conditions: purified IRAP, Leu-AMC cleavage fluorescence, 1 h; at 11 µM (top of the series)

Structure (SMILES) | activity change, negative = inhibition
COc1ccc(CN(C)C[C@@H]2OCCCC[C@@H](C)Oc3ccc(NS(=O)(=O)c4cccs4)cc3C(=O)N([C@H](C)CO)C[C@@H]2C)cc1 | inactive
COc1ccc(NC(=O)Nc2ccc3c(c2)C(=O)N([C@H](C)CO)C[C@@H](C)[C@@H](CN(C)Cc2ccc(C(=O)O)cc2)OCCCC[C@@H](C)O3)cc1 | inactive
CO[C@@H]1CN(C)C(=O)c2ccc(NC(=O)Nc3cccc(Cl)c3)cc2OC[C@@H](C)NC[C@H]1C | inactive
C[C@@H]1CN([C@H](C)CO)C(=O)c2cc(NC(=O)Nc3ccc(F)cc3)ccc2O[C@H]1CN(C)Cc1ccc(C(=O)O)cc1 | inactive
COc1ccc(NC(=O)Nc2cccc3c2O[C@H](CN(C)Cc2ccc(C(=O)O)cc2)[C@H](C)CN([C@H](C)CO)C3=O)cc1 | inactive
CCC(=O)N(C)C[C@H]1Oc2ncc(C#Cc3ccncc3)cc2C(=O)N([C@H](C)CO)C[C@H]1C | inactive
C[C@@H]1CCCCO[C@@H](CN(C)C)[C@@H](C)CN([C@@H](C)CO)C(=O)c2cc(NS(=O)(=O)c3ccc(F)cc3)ccc2O1 | inactive
N#Cc1c(N2CCNCC2)nc(-c2ccco2)c2c1CCCC2 | inactive
C[C@H](CO)N1C[C@H](C)[C@H](CN(C)CC2CCCCC2)Oc2c(NC(=O)Nc3ccc(C(F)(F)F)cc3)cccc2C1=O | inactive
CCC(=O)N(C)C[C@@H]1Oc2ncc(C#Cc3ccncc3)cc2C(=O)N([C@@H](C)CO)C[C@@H]1C | inactive
C[C@@H]1CCCCO[C@@H](CN(C)Cc2ccc(C(=O)O)cc2)[C@H](C)CN([C@@H](C)CO)C(=O)c2cc(NS(=O)(=O)c3ccc(Cl)cc3)ccc2O1 | inactive
C[C@@H]1CCCCO[C@@H](CN(C)Cc2ccc3c(c2)OCO3)[C@@H](C)CN([C@H](C)CO)C(=O)c2cc(NS(=O)(=O)c3cccs3)ccc2O1 | inactive
COc1ccc(NC(=O)Nc2ccc3c(c2)C(=O)N([C@@H](C)CO)C[C@@H](C)[C@H](CN(C)Cc2ccc(C(=O)O)cc2)OCCCC[C@H](C)O3)cc1 | inactive
CCCN(C)C[C@@H]1OCCCC[C@@H](C)Oc2ccc(NS(=O)(=O)c3ccc(F)cc3)cc2C(=O)N([C@H](C)CO)C[C@@H]1C | inactive
C[C@@H]1CCCCO[C@H](CN(C)Cc2ccccc2)[C@H](C)CN([C@H](C)CO)C(=O)c2cc(NS(=O)(=O)c3ccccc3)ccc2O1 | inactive
COc1ccc(S(=O)(=O)Nc2ccc3c(c2)C(=O)N([C@@H](C)CO)C[C@H](C)[C@H](CN(C)C)OCCCC[C@@H](C)O3)cc1 | inactive
O=C(CSc1cn[nH]n1)Nc1cccc(C(=O)O)c1 | inactive
C[C@H]1CN([C@@H](C)CO)C(=O)c2cccc(NC(=O)Nc3ccc(F)cc3)c2O[C@@H]1CN(C)C(=O)Nc1ccc2c(c1)OCO2 | inactive
COc1ccc(CN(C)C[C@H]2OCCCC[C@@H](C)Oc3ccc(NS(=O)(=O)c4cccs4)cc3C(=O)N([C@@H](C)CO)C[C@H]2C)cc1 | inactive
Cc1cc(=O)oc2c(CN3CCN(C)CC3)c(O)c(Cl)cc12 | inactive
C[C@H](CO)N1C[C@H](C)[C@H](CN(C)Cc2ccncc2)Oc2c(NC(=O)Nc3ccc(C(F)(F)F)cc3)cccc2C1=O | inactive
Cc1noc(C)c1NC(=O)N(C)C[C@@H]1Oc2c(NC(=O)Nc3ccccc3)cccc2C(=O)N([C@H](C)CO)C[C@@H]1C | inactive
Cc1ccccc1-c1ccc2c(c1)O[C@@H](CN(C)Cc1ccc(C(=O)O)cc1)[C@@H](C)CN([C@H](C)CO)S2(=O)=O | inactive
C[C@@H]1CCCCO[C@@H](CN(C)CC2CC2)[C@@H](C)CN([C@H](C)CO)C(=O)c2cc(NS(=O)(=O)c3ccc(Cl)cc3)ccc2O1 | inactive
CCn1cc(CN2CCCC(C(=O)Nc3ccc(-c4nc5ccccc5[nH]4)cc3)C2)c(C)n1 (stereo not drawn) | inactive

Structure (SMILES) | activity change, negative = inhibition
C[C@@H]1CCCCO[C@@H](CN(C)C)[C@@H](C)CN([C@@H](C)CO)C(=O)c2cc(NS(=O)(=O)c3ccc(Cl)cc3)ccc2O1 | inactive
COc1ccc(CN(C)C[C@@H]2OCCCC[C@H](C)Oc3ccc(NS(=O)(=O)c4cccs4)cc3C(=O)N([C@@H](C)CO)C[C@@H]2C)cc1 | inactive
COc1ccc2c3c([nH]c2c1)[C@H](CO)N(Cc1cc(F)ccc1F)CC31CN(C)C1 | inactive
COc1ccc(NC(=O)Nc2ccc3c(c2)C(=O)N([C@H](C)CO)C[C@@H](C)[C@H](CN(C)Cc2ccc(C(=O)O)cc2)OCCCC[C@@H](C)O3)cc1 | inactive
CCCNC(=O)C[C@@H]1CC[C@@H]2[C@H](COC[C@H](O)CN2C(=O)Nc2cccc(Cl)c2)O1 | inactive
NC(=NCCc1c[nH]c2ccccc12)NS(=O)(=O)c1cc(F)ccc1F | inactive
C[C@@H]1CCCCO[C@@H](CN(C)CC2CCCCC2)[C@H](C)CN([C@@H](C)CO)C(=O)c2cc(NC(=O)Nc3ccccc3)ccc2O1 | inactive
COC(=O)[C@H]1[C@H](CO)[C@H]2Cn3c(ccc(-c4ccncc4)c3=O)[C@H]2N1Cc1ccccc1F | inactive
COc1ccc(CN(C)C[C@H]2OCCCC[C@@H](C)Oc3ccc(NS(=O)(=O)c4cccs4)cc3C(=O)N([C@H](C)CO)C[C@H]2C)cc1 | inactive
Cc1noc(C)c1NC(=O)N(C)C[C@@H]1Oc2c(NC(=O)Nc3ccc(F)cc3)cccc2C(=O)N([C@H](C)CO)C[C@@H]1C | inactive
C[C@H]1CN([C@@H](C)CO)C(=O)c2cccc(NC(=O)Nc3ccc4c(c3)OCO4)c2O[C@@H]1CN(C)CC1CC1 | inactive
C[C@@H]1CCCCO[C@H](CN(C)Cc2ccc(C(=O)O)cc2)[C@H](C)CN([C@@H](C)CO)C(=O)c2cc(NC(=O)Nc3ccc(C(F)(F)F)cc3)ccc2O1 | inactive
COc1cccc(S(=O)(=O)N(C)C[C@@H]2Oc3ncccc3C(=O)N([C@H](C)CO)C[C@@H]2C)c1 | inactive
Cc1ccc2nc3c(cc(C(=O)NCc4ccccc4)c(=N)n3CCCn3ccnc3)c(=O)n2c1 | inactive
Cc1ccccc1-c1ccc2c(c1)O[C@@H](CN(C)Cc1ccc(C(=O)O)cc1)[C@@H](C)CN([C@@H](C)CO)S2(=O)=O | inactive
CNC[C@H]1OCCCC[C@@H](C)Oc2ccc(NS(=O)(=O)c3ccc(C)cc3)cc2C(=O)N([C@@H](C)CO)C[C@H]1C | inactive
CCCNC(=O)C[C@H]1CC[C@@H]2[C@H](COC[C@H](O)CN2C(=O)Nc2cccc(Cl)c2)O1 | inactive
C[C@H](CO)N1C[C@H](C)[C@H](CN(C)Cc2ccc(C(=O)O)cc2)Oc2c(NC(=O)Nc3ccccc3)cccc2C1=O | inactive
C[C@@H]1CCCCO[C@H](CN(C)C)[C@H](C)CN([C@H](C)CO)C(=O)c2cc(NS(=O)(=O)c3ccc(Cl)cc3)ccc2O1 | inactive
Cc1noc(C)c1S(=O)(=O)Nc1ccc2c(c1)C(=O)N([C@H](C)CO)C[C@@H](C)[C@@H](CN(C)CC1CCCCC1)OCCCC[C@@H](C)O2 | inactive
COc1ccc(CN(C)C[C@@H]2OCCCC[C@@H](C)Oc3ccc(NS(=O)(=O)c4cccs4)cc3C(=O)N([C@@H](C)CO)C[C@H]2C)cc1 | inactive
CCCN(C)C[C@@H]1OCCCC[C@@H](C)Oc2ccc(NS(=O)(=O)c3ccccc3)cc2C(=O)N([C@H](C)CO)C[C@@H]1C | inactive
C[C@H](CO)N1C[C@H](C)[C@H](CN(C)CC2CCCCC2)Oc2c(NC(=O)Nc3ccc4c(c3)OCO4)cccc2C1=O | inactive
O=C(Nc1ccc(C(F)(F)F)cc1)N1[C@@H]2CNC[C@H]1C2c1ccc(-c2ccncc2)cc1 (stereo partly drawn) | inactive
C[C@@H]1CCCCO[C@@H](CN(C)Cc2ccc(C(=O)O)cc2)[C@@H](C)CN([C@H](C)CO)C(=O)c2cc(NC(=O)Nc3cccc4ccccc34)ccc2O1 | inactive
